Three molecules from publication PMC9611727, “Optimization of a Novel Mandelamide-Derived Pyrrolopyrimidine Series of PERK Inhibitors” (Pharmaceutics, 2022) can be followed below.

Numbering of substitutions follows the chain as printed.

Holding throughout (experiment): scanMAX kinase panel
What all share (format): binding

The target in experiment [1] is T1, FLT3 (Homo sapiens, UniProt P36888).
T1 sequence (P36888 27-993): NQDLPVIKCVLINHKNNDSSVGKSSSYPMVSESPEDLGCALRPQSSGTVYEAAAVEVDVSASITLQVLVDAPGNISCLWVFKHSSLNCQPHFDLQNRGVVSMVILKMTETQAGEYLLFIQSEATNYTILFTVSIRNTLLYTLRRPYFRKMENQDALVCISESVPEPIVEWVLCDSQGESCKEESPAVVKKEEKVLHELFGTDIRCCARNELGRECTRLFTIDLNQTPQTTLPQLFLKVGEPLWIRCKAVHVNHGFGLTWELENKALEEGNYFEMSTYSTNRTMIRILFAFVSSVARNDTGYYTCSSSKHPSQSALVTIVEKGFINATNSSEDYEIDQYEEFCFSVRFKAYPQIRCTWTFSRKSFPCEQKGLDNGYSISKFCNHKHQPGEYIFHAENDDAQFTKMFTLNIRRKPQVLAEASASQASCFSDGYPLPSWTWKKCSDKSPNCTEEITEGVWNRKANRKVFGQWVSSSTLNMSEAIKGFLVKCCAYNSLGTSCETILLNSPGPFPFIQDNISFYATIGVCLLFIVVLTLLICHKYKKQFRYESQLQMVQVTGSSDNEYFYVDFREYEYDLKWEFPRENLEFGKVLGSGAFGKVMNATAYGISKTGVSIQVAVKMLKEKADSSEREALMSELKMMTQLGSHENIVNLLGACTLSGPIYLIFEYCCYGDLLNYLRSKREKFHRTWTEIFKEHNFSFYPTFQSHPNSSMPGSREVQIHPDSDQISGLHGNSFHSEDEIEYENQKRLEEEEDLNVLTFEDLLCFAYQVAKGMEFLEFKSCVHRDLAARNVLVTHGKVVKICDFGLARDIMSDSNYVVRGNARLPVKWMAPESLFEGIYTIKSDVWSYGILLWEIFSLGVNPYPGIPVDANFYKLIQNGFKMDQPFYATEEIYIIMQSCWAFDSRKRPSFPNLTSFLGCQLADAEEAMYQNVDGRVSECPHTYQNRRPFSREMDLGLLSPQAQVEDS
Also noted: purchased DiscoverX scanMAX. The conditions noted are these: read-out: % Control; for remaining binding at 1 µM: 1000 nM. An excerpt: (§1) Supplemental Table S2. scanMAXSM Kinome Assay Results. Complete tabulated data of all 468 kinases from the panel, including
(§2) 403 wild-type and 65 mutant isoforms. […] Cmpd 11 and Cmpd 24

In experiment [2] the test system is FLT3(ITD).
Text: as §1, §2

For experiment [3], the target named is T2, MAP3K3 (Homo sapiens, UniProt Q99759).
T2 construct: purchased DiscoverX scanMAX
T2 sequence (Q99759 1-626): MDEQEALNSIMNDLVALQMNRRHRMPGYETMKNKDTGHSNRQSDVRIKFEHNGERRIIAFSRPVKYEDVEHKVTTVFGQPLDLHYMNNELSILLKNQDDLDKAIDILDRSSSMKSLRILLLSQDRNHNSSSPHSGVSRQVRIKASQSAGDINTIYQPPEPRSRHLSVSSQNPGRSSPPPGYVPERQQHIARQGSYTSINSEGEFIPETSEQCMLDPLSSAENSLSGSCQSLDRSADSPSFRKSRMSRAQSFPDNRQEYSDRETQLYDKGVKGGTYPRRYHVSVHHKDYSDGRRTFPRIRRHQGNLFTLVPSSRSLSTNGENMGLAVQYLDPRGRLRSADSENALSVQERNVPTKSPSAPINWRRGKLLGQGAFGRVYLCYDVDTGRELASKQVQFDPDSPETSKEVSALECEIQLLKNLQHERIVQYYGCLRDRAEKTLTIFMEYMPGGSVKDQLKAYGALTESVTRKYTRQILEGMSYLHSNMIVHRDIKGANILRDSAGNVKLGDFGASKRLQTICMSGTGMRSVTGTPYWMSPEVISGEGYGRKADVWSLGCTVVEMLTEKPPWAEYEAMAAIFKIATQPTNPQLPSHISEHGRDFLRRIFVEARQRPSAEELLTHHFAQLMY
The conditions noted are these: read-out: % Control; for remaining binding at 1 µM: 1000 nM.
Text: as §1, §2

In experiment [4] the target is T3, FLT3(D835V) (Homo sapiens, UniProt P36888, D835V).
T3 construct: purchased DiscoverX scanMAX
T3 sequence (P36888 27-993 D835V): T1 sequence (P36888 27-993) with D809V
The conditions noted are these: read-out: % Control; for remaining binding at 1 µM: 1000 nM.
Text: as §1, §2

In experiment [5] the target is T4, PIK4CB (Homo sapiens, UniProt Q9UBF8).
T4 construct: purchased DiscoverX scanMAX
The conditions noted are these: read-out: % Control; for remaining binding at 1 µM: 1000 nM.
Text: as §1, §2

The target in experiment [6] is T5, TESK1 (Homo sapiens, UniProt Q15569).
T5 construct: purchased DiscoverX (scanMAX panel)
The conditions noted are these: read-out: % Control; for remaining binding at 1 µM: 1000 nM.
Text: as §1, §2

The target of experiment [7] is T6, TRKA (Homo sapiens, UniProt P04629).
T6 construct: purchased DiscoverX (scanMAX panel)
Conditions: read-out: % Control; for remaining binding at 1 µM: 1000 nM.
Text: as §1, §2

T5 sequence (Q15569 whole entry): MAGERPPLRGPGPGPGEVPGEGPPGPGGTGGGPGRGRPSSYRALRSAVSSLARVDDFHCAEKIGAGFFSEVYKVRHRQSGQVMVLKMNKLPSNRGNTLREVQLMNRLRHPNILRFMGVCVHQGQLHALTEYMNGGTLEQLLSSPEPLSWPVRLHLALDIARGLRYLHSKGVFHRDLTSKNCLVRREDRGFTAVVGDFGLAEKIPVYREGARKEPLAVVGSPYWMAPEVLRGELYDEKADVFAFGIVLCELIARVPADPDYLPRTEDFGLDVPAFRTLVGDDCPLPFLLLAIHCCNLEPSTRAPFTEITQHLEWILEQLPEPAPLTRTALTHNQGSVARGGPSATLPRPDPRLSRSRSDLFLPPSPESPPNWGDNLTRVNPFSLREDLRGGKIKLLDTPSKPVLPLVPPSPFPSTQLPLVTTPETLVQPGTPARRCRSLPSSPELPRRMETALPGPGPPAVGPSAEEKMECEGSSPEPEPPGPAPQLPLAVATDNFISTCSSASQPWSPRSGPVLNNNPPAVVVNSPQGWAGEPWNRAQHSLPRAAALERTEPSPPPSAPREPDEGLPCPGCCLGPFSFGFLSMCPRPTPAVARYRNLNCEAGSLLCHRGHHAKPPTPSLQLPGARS
T6 sequence (P04629 33-796): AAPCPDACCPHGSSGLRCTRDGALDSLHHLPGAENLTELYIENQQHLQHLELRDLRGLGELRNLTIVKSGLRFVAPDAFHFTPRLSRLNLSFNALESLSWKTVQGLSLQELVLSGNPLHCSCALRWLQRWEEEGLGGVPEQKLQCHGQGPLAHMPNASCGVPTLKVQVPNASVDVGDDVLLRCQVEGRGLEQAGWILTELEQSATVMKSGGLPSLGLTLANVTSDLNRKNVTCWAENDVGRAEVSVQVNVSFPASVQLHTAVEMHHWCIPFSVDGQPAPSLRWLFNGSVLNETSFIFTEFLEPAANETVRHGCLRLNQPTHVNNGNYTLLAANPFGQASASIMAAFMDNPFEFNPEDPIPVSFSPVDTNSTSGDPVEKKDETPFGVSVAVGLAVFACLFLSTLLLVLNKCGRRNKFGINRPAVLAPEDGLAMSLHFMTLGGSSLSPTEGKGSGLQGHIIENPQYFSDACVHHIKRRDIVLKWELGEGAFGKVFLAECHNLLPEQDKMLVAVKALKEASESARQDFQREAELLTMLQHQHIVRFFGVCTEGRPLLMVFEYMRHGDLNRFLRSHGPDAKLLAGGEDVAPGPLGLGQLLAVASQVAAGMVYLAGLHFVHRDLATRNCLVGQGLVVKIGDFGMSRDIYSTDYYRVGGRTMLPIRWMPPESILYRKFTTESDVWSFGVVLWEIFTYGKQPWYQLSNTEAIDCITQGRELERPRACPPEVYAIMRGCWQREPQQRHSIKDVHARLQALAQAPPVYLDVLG
T4 sequence (Q9UBF8 whole entry): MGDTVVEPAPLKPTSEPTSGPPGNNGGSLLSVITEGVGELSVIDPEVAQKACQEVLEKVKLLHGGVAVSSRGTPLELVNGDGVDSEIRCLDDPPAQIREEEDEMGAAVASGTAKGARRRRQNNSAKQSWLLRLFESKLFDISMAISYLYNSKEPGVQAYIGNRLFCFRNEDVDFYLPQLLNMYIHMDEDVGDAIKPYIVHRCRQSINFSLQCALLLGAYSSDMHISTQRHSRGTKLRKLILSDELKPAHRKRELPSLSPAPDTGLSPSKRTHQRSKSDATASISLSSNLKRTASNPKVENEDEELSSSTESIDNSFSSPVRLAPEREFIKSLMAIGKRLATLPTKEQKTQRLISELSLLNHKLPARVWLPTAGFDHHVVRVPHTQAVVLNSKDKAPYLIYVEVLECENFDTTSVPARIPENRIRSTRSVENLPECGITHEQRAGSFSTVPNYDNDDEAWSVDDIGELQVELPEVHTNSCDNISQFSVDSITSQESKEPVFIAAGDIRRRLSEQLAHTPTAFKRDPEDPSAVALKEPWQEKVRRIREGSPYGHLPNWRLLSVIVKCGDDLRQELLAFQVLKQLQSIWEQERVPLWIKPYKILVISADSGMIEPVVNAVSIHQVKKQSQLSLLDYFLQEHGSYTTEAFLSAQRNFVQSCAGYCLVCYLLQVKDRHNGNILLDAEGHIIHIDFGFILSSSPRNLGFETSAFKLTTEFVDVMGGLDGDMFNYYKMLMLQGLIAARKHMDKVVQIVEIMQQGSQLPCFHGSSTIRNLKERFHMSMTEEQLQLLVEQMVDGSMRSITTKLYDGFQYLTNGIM

Consider `Cc1cc(NC(=O)[C@H](O)c2cccc(F)c2)ccc1-c1cn(C)c2ncnc(N)c12` [Compound 11, (R)-N-(4-(4-amino-7-methyl-7H-pyrrolo[2,3-d]pyrimidin-5-yl)-3-methylphenyl)-2-(3-fluorophenyl)-2-hydroxy acetamide], for which the remaining binding at 1 µM in experiment [1] stood at 4.3%; in experiment [3] it was 32%; in experiment [4] it was 52%; in experiment [5], 84%; in experiment [6], 15%; in experiment [7], 12%. For the same molecule, in experiment [2] (1000 nM), the “% Control” value is listed as 34%.

Regarding `Cc1nc(N)c2c(-c3ccc(NC(=O)[C@H](O)c4cccc(C(F)(F)F)c4)cc3C)cn(C)c2n1` [Compound 26], the remaining binding at 0.1 µM came to 41% in experiment [1] (100 nM); 100% in experiment [3] (100 nM); 100% in experiment [4] (100 nM); 93% in experiment [5] (100 nM); 97% in experiment [6] (100 nM); 29% in experiment [7] (100 nM). In addition, the remaining binding at 1 µM in experiment [1] was determined as 0%; in experiment [3], 92%; in experiment [4], 8.5%; in experiment [5], 4.3%; in experiment [6], 99%; in experiment [7], 3.4%. Moreover, the “% Control” value in experiment [2] (100 nM) turned out to be 95%; in experiment [2] (1000 nM), 9.4%.

For the molecule `Cc1nc(N)c2c(-c3ccc(NC(=O)[C@H](O)c4cccc(F)c4)cc3C)cn(C)c2n1` [Compound 24], the remaining binding at 1 µM in experiment [1] came out at 66%; in experiment [3] it was 100%; in experiment [4], 100%; in experiment [5], 28%; in experiment [6], 100%; in experiment [7] it was 67%. Also, the “% Control” value in experiment [2] (1000 nM) was 94%.
